Like-named read-outs stand apart in the source and are kept apart here.
Tests used:
[1] = Partition in water/octanol (14C-biotin, scintillation counting); type: physicochemical
Protocol: ^14 C-biotin (53000 dpm) was used admixed with cool biotin (0.25 mmol) in 5 ml of twice distilled water, in the presence and in the absence of ethanolamine (3 μl), then adding 5 ml of octanol and stirring (1 minute by means of a stirrer VORTEX). After separation of the phases the radioactivity was measured by scintillation (Beckman counter) in 1 ml of sample. The amount of ^14 C-biotin transferred into the octanolic phase was 14443 dpm in the absence of ethanolamine and 82 dpm in the presence of ethanolamine.
This confirms the increase in solubility in the aqueous phase, which is a consequence of the salification.

[2] = Solubility in cold ethanol; type: physicochemical
Water solubility = type: physicochemical; settings: salts of biotin with an aminoalcohol
[3] = cited from earlier work
insulin = settings: recent studies; cited from earlier work
[4] = test system: seborrheal dermatitis of the newborn; settings: cited from earlier work
vitamin H deficiency = settings: cited from earlier work
[5] = test system: carboxylase enzymes deficiency; settings: cited from earlier work
glucokinase = settings: recent studies; cited from earlier work
diabetes = settings: cited from earlier work
[6] = test system: peripheral neuropathies having diabetic origin; settings: human beings; cited from earlier work
[7] = water/octanol, average of 3 tests

O=C(O)CCCC[C@@H]1SC[C@@H]2NC(=O)N[C@@H]21 [^14 C-biotin]
change of amount of 14C-biotin transferred into the octanolic phase ([1]; aqueous phase brought to pH 4, in the absence of ethanolamine): always remains the same
increase of amount of 14C-biotin transferred into the octanolic phase ([1]; aqueous phase brought to pH 4, in the presence of ethanolamine): 170 times
amount of 14C-biotin transferred into the octanolic phase ([1]; in the absence of ethanolamine): 14443 dpm
amount of 14C-biotin transferred into the octanolic phase ([1]; in the presence of ethanolamine (3 μl)): 82 dpm

O=C(O)CCCC[C@@H]1SC[C@@H]2NC(=O)N[C@@H]21 [Ethanolamine biotinate, ethanolamine biotinate]
solubility in cold ethanol (in words) [2]: rather soluble in cold ethanol
water solubility (in words) (Water solubility): completely water soluble
H2O (dpm) ([1]; pH 4, average of 3 tests): 32148 dpm
H2O/octanol ([1]; pH 4, average of 3 tests): 2.6
octanol (dpm) ([1]; pH 4, average of 3 tests): 12300 dpm
H2O (dpm) [1, 7]: 36664 dpm
H2O/octanol [1, 7]: 447.1
octanol (dpm) [1, 7]: 82 dpm

O=C(O)CCCC[C@@H]1SC[C@@H]2NC(=O)N[C@@H]21 [Biotin, biotin]
water solubility ([3]; biotin as such): 22 mg/100 ml
water solubility (in words) ([3]; prior art): poor water solubility
activation of insulin (insulin): able to activate
effect in seborrheal dermatitis in the newborn [4]: particularly effective
egg-white injury (vitamin H deficiency; Sidenstricker and co-workers, 1942): can be defeated
secondary effects of vitamin deficiency (vitamin H deficiency; following administration of biotin for a certain time): disappeared
effect in diseases coming from a deficiency in multiple carboxylase enzymes ([5]; multiple carboxylase enzymes): effective
effect in diseases caused by single carboxylase enzymes insufficiency ([5]; single carboxylase enzymes (propionyl-CoA, pyruvate, β-methyl-crotonyl carboxylase)): uneffective
H2O (dpm) ([1]; pH 4, average of 3 tests): 40769 dpm
H2O/octanol ([1]; pH 4, average of 3 tests): 2.9
octanol (dpm) ([1]; pH 4, average of 3 tests): 13991 dpm
H2O (dpm) [1, 7]: 40940 dpm
H2O/octanol [1, 7]: 2.8
octanol (dpm) [1, 7]: 14443 dpm
activation of glucokinase (glucokinase): able to activate
blood glucose level (diabetes; insulin-dependent diabetics): lowers the blood glucose level
glucose tolerance (diabetes; insulin-independent diabetes): increase glucose tolerance
post-prandial glucose level (diabetes; insulin-independent diabetes): reduce the post-prandial glucose level
resistance to insulin (diabetes; insulin-independent diabetes): lower resistance to insulin
treatment and prevention of diabetic peripheral neuropathies [6]: advantageously utilized

Source: patent US5550249A, “Water soluble derivatives of biotin and related therapeutical compositions” (Lifegroup, S.p.A., priority 1991, dated 1996)
